Measurements from publication PMC7666214, “Kinetic insights into the peroxygenase activity of cellulose-active lytic polysaccharide monooxygenases (LPMOs)” (Nature Communications, 2020).

Molecular target: T1, HRP (Armoracia rusticana, UniProt P00433)
T1 construct: gene PRXC1A; commercial horseradish peroxidase, used as purchased
T1 sequence (P00433 31-338): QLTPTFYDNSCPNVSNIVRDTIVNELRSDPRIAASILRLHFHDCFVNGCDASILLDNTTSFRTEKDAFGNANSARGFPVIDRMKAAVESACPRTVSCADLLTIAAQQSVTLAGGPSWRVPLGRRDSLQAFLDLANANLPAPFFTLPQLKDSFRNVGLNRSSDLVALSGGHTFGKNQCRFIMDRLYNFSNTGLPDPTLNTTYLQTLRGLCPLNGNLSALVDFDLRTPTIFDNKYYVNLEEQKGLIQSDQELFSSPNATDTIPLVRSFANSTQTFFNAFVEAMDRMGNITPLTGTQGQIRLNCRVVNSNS
Test: absorbance at […] nm (resorufin)
Format: biochemical
Conditions: H2O2 co-substrate, Bis-Tris 50 mM pH 6.1, 25 °C; ping-pong

CC(=O)N1c2ccc(O)cc2Oc2cc(O)ccc21 [AR, N-acetyl-3,7-dihydroxyphenoxazine]
absorbance at 570 nm (resorufin): The kinetics of HRP with the AR substrate was consistent with the ping-pong mechanism
